Test results from patent US10913714B2, “Pyrrole sulfonyl derivative, preparation method and medical use thereof” (JIANGSU CAREPHAR PHARMACEUTICAL CO., LTD, priority 2015, dated 2021).
Counter-ions that a name gives are not always drawn. Marks after values point to notes of the source that are not given here.

System: gastric acid secretion induced by histamine
Test: Gastric acid secretion induced by histamine in pylorus-ligated rats
Type: in vivo
Conditions: SD rat; for Total acid content: 2 mg/kg by gavage 1 h before histamine, total acid of 3 h; for Acid inhibiting rate %: 2 mg/kg by gavage, compared with model control
Text: Test Case 3: Studies on the Effect of EXP 1, TAK-438 and EXP 14 on Gastric Acid Secretion Induced by Histamine Experimental Materials 1) Animals
SD rat, class SPF, male, 180-220 g; provided by Zhejiang Experimental Animal Center; production permit no.: SCXK (Z) 2014-0001.
Compound EXP 1, dissolved with a small amount of acetic acid (about 1.10N EXP 1), 0.9% sodium chloride solution to a clear liquid with needed concentration before use.
>Compound TAK-438, dissolved with 0.9% sodium chloride solution to a clear liquid with needed concentration before use.
Compound EXP 14, dissolved with a small amount of acetic acid (about 1.10N EXP 14), 0.9% sodium chloride solution to a clear liquid with needed concentration before use.
Fetching 60 SD rats of class SPF with a weight of 180-220 g; dividing the rats into 5 groups as per weights randomly, including Group EXP 1 (2 mg/kg), Group TAK-438 (2 mg/kg, as per free alkali), Group EXP 14 (2 mg/kg), Group negative control (normal saline of equal volume) and Group model control (normal saline of equal volume); 12 rats per group. Absolute diet for 24 h, water is allowed. After 24 h, administrating drugs to the tested compound groups A, B and C by gavage with a volume of 1 ml/100 g; each group is administered once; the negative control and model negative control groups are administrated by gavage with normal saline of equal volume. Narcotizing the rat with 300 mg/kg of chloral hydrate (1 ml/100 g) and fixing it onto the rat board; cutting to open the abdominal wall along the medioventral line from the mucronate cartilage with an incision of 2-3 cm; slightly pushing the left costal margin upward to expose the stomach in the incision. Ligaturing the pylorus thereunder (leave alone the adjacent blood vessels) and then suturing the abdominal incision. Giving histamine dihydrochloride (30 mg/10 m/kg) hypodermically to the rat 1 h after the tested compound or normal saline are administrated. Choking the rat to death with excessive CO2 3 h after the histamine is given; taking out the stomach and collecting the gastric contents for centrifugation at 3000 rpm/min; adjusting the PH value of the acid fluid to 7.0 with 0.1 mol/L of NaOH titration and then calculating the total acid content of the 3 h. Refer to Table 3 for results.

`CNCc1cc(-c2ccccc2F)n(S(=O)(=O)c2cccc(OCCCOC)c2)c1` [EXP 1, 1-(5-(2-fluorobenzene)-1-((3-(3-methoxypropoxy)phenyl)sulfonyl)-1H-pyrrole-3-yl)-N-methyl methylamine] was tested, and the Total acid content was 0.49 ± 0.12** 10^−4 mol and the “Acid inhibiting rate %” value was 55.4%.
`CNCc1cc(-c2ccccc2F)n(S(=O)(=O)c2cccnc2)c1` [TAK-438, 5-(2-fluorophenyl)-N-methyl-1-(3-pyridylsulfonyl)-1H-pyrrole-3-methamine fumarate] was tested, and the Total acid content was 0.52 ± 0.10** 10^−4 mol and the “Acid inhibiting rate %” value was 52.3%.
